Measurements reported in article PMC12517324, “Hyperagonism of a Vitamin D Receptor Agonist/Histone Deacetylase Inhibitor Hybrid Molecule” (Journal of Medicinal Chemistry, 2025).

System: B16–F10 cells
Test: RNaseq gene expression profiling
Type: cell-based, mouse
Settings: RNAseq
Description: AC-340 superinduced CYP24A1 expression in all cell lines tested, and ZG-126 appeared to be a hyperagonist in SK-MEL-28 cells. […] AC-340 treatment produced 3 times more differentially expressed genes (DEGs) than AM-193, with ZG-126 producing an intermediate number (Figure A). […] The varying effects of each treatment on the numbers of regulated genes and the fold changes observed are reflected in plots of log-fold changes and volcano plots (Figure S3B).
A quality control was performed before sequencing in paired-end at 50 M reads by Illumina NovaSeq 6000 S4 PE100. After sequencing, the FASTQ files were sent to us and all downstream analysis were performed on Galaxy (Galaxy (usegalaxy.org)). First, trimmomatic tool was used to remove the adapters from the reads. Then, using the alignment tool, HISAT2, the reads were mapped to the mouse genome. In the next step, the counted reads were annotated and finally the list of differentially expressed genes (DEGs) for each treatment was obtained using the preinstalled R package called Limma.

## CCC(CC)(c1ccc(OCCCCCC(=O)NO)cc1)c1ccc(OCC(O)C(C)(C)C)c(C)n1 (stereo not shown) [AM-193]
Gene Acat2, AM193-significant genes
  logFC Acat2: -0.7924
Gene Agt, AM193-significant genes
  logFC Agt: -0.9491
Gene Aimp2, AM193-significant genes
  logFC Aimp2: -0.7904
Gene Alyref, AM193-significant genes
  logFC Alyref: -0.7893
Gene Anln, AM193-significant genes
  logFC Anln: -0.751
Gene Aurkb, AM193-significant genes
  logFC Aurkb: -0.7442
Gene B3galt5, AM193-significant genes
  logFC B3galt5: -0.7772
Gene Bhlhe40, AM193-significant genes
  logFC Bhlhe40: -0.9608
Gene Birc5, AM193-significant genes
  logFC Birc5: -0.9013
Gene Bnip1, AM193-significant genes
  logFC Bnip1: -0.7195
Gene Bora, AM193-significant genes
  logFC Bora: -0.8854
Gene Brca1, AM193-significant genes
  logFC Brca1: -0.7501
Gene Bsn, AM193-significant genes
  logFC Bsn: -0.8525
Gene Cad, AM193-significant genes
  logFC Cad: -1.103
Gene Calr, AM193-significant genes
  logFC Calr: -0.7283
Gene Ccl5, AM193-significant genes
  logFC Ccl5: -0.8403
Gene Ccna2, AM193-significant genes
  logFC Ccna2: -0.7214
Gene Ccnb1, AM193-significant genes
  logFC Ccnb1: -0.7431
Gene Ccnf, AM193-significant genes
  logFC Ccnf: -0.8441
Gene Cd3eap, AM193-significant genes
  logFC Cd3eap: -0.7422
Gene Cdc6, AM193-significant genes
  logFC Cdc6: -0.8307
Gene Cdc20, AM193-significant genes
  logFC Cdc20: -0.7899
Gene Cdc25c, AM193-significant genes
  logFC Cdc25c: -0.8576
Gene Cdk1, AM193-significant genes
  logFC Cdk1: -0.7282
Gene Cdk2, AM193-significant genes
  logFC Cdk2: -0.7948
Gene Cenpa, AM193-significant genes
  logFC Cenpa: -0.7639
Gene Cenpn, AM193-significant genes
  logFC Cenpn: -0.717
Gene Cep152, AM193-significant genes
  logFC Cep152: -0.7072
Gene Cse1l, AM193-significant genes
  logFC Cse1l: -0.7192
Gene Dctd, AM193-significant genes
  logFC Dctd: -1.041
Gene Ddah1, AM193-significant genes
  logFC Ddah1: -1.0571
Gene Dhcr24, AM193-significant genes
  logFC Dhcr24: -1.0227
Gene Dis3, AM193-significant genes
  logFC Dis3: -0.7516
Gene Dkc1, AM193-significant genes
  logFC Dkc1: -0.7246
Gene Dnph1, AM193-significant genes
  logFC Dnph1: -0.7927
Gene E2f8, AM193-significant genes
  logFC E2f8: -0.7725
Gene Egln1, AM193-significant genes
  logFC Egln1: -1.099
Gene Elovl6, AM193-significant genes
  logFC Elovl6: -0.8086
Gene Eme1, AM193-significant genes
  logFC Eme1: -0.7703
Gene Eps8, AM193-significant genes
  logFC Eps8: -0.9363
Gene Espl1, AM193-significant genes
  logFC Espl1: -0.8155
Gene Exosc6, AM193-significant genes
  logFC Exosc6: -0.7177
Gene Exosc8, AM193-significant genes
  logFC Exosc8: -0.7524
Gene Fam162a, AM193-significant genes
  logFC Fam162a: -1.049
Gene Fam83d, AM193-significant genes
  logFC Fam83d: -0.8732
Gene Fasn, AM193-significant genes
  logFC Fasn: -0.7289
Gene Fdps, AM193-significant genes
  logFC Fdps: -0.7443
Gene Fkbp11, AM193-significant genes
  logFC Fkbp11: -1.012
Gene Foxm1, AM193-significant genes
  logFC Foxm1: -0.7084
Gene Fubp1, AM193-significant genes
  logFC Fubp1: -0.7875
Gene Fut11, AM193-significant genes
  logFC Fut11: -0.7657
Gene Gamt, AM193-significant genes
  logFC Gamt: -0.9245
Gene Gar1, AM193-significant genes
  logFC Gar1: -0.799
Gene Gcat, AM193-significant genes
  logFC Gcat: -1.125
Gene Gemin4, AM193-significant genes
  logFC Gemin4: -0.7731
Gene Gins1, AM193-significant genes
  logFC Gins1: -0.7214
Gene Gjb2, AM193-significant genes
  logFC Gjb2: -0.8099
Gene Gm973, AM193-significant genes
  logFC Gm973: -0.7844
Gene Grhpr, AM193-significant genes
  logFC Grhpr: -0.8764
Gene Grwd1, AM193-significant genes
  logFC Grwd1: -0.9726
Gene Gys1, AM193-significant genes
  logFC Gys1: -0.7213
Gene H1f3, AM193-significant genes
  logFC H1f3: -0.9967
Gene H1f6, AM193-significant genes
  logFC H1f6: -1.042
Gene H2ac6, AM193-significant genes
  logFC H2ac6: -0.96
Gene H2ac8, AM193-significant genes
  logFC H2ac8: -0.9016
Gene H2ac11, AM193-significant genes
  logFC H2ac11: -0.8838
Gene H2ac25, AM193-significant genes
  logFC H2ac25: -0.7891
Gene H2ax, AM193-significant genes
  logFC H2ax: -0.7149
Gene H2bc6, AM193-significant genes
  logFC H2bc6: -0.7735
Gene H2bc8, AM193-significant genes
  logFC H2bc8: -0.9803
Gene H2bc9, AM193-significant genes
  logFC H2bc9: -1.042
Gene H2bc11, AM193-significant genes
  logFC H2bc11: -0.7444
Gene H2bc18, AM193-significant genes
  logFC H2bc18: -0.8059
Gene H2bu1-ps, AM193-significant genes
  logFC H2bu1-ps: -0.9542
Gene H3c1, AM193-significant genes
  logFC H3c1: -0.892
Gene H3c6, AM193-significant genes
  logFC H3c6: -0.7599
Gene H3c7, AM193-significant genes
  logFC H3c7: -0.9595
Gene H4c1, AM193-significant genes
  logFC H4c1: -0.7797
Gene H4c2, AM193-significant genes
  logFC H4c2: -0.7954
Gene Higd1a, AM193-significant genes
  logFC Higd1a: -0.903
Gene Hirip3, AM193-significant genes
  logFC Hirip3: -0.7302
Gene Hmga1, AM193-significant genes
  logFC Hmga1: -1.033
Gene Hmga1b, AM193-significant genes
  logFC Hmga1b: -1.051
Gene Hmgb2, AM193-significant genes
  logFC Hmgb2: -0.8226
Gene Hmgcs1, AM193-significant genes
  logFC Hmgcs1: -0.7755
Gene Hmgn2, AM193-significant genes
  logFC Hmgn2: -0.7752
Gene Hpse, AM193-significant genes
  logFC Hpse: -0.8433
Gene Hrob, AM193-significant genes
  logFC Hrob: -0.8536
Gene Hspa5, AM193-significant genes
  logFC Hspa5: -0.7657
Gene Idi1, AM193-significant genes
  logFC Idi1: -1.099
Gene Ier3, AM193-significant genes
  logFC Ier3: -0.7432
Gene Impa2, AM193-significant genes
  logFC Impa2: -0.8388
Gene Impdh2-ps, AM193-significant genes
  logFC Impdh2-ps: -0.7159
Gene Incenp, AM193-significant genes
  logFC Incenp: -0.7108
Gene Ip6k3, AM193-significant genes
  logFC Ip6k3: -0.7379
Gene Irgm1, AM193-significant genes
  logFC Irgm1: -0.7387
Gene Jmjd6, AM193-significant genes
  logFC Jmjd6: -0.8319
Gene Jpt2, AM193-significant genes
  logFC Jpt2: -0.8326
Gene Kif2c, AM193-significant genes
  logFC Kif2c: -0.7884
Gene Kif14, AM193-significant genes
  logFC Kif14: -0.8043
Gene Kif20b, AM193-significant genes
  logFC Kif20b: -0.7216
Gene Kif22, AM193-significant genes
  logFC Kif22: -0.8428
Gene Kif23, AM193-significant genes
  logFC Kif23: -0.7776
Gene Ldha, AM193-significant genes
  logFC Ldha: -0.9079
Gene Ldlr, AM193-significant genes
  logFC Ldlr: -0.7666
Gene Lig1, AM193-significant genes
  logFC Lig1: -0.7368
Gene Lmnb1, AM193-significant genes
  logFC Lmnb1: -0.9349
Gene Loxl2, AM193-significant genes
  logFC Loxl2: -1.106
Gene Lpcat1, AM193-significant genes
  logFC Lpcat1: -1.098
Gene Lpgat1, AM193-significant genes
  logFC Lpgat1: -0.8431
Gene Lrp8, AM193-significant genes
  logFC Lrp8: -0.9511
Gene Lyar, AM193-significant genes
  logFC Lyar: -0.724
Gene Man2a1, AM193-significant genes
  logFC Man2a1: -0.7409
Gene Mcm10, AM193-significant genes
  logFC Mcm10: -0.7922
Gene Mest, AM193-significant genes
  logFC Mest: -1.125
Gene Met, AM193-significant genes
  logFC Met: -1.057
Gene Mitf, AM193-significant genes
  logFC Mitf: -0.8034
Gene Mki67, AM193-significant genes
  logFC Mki67: -0.7294
Gene Mxd3, AM193-significant genes
  logFC Mxd3: -0.9949
Gene Mybl2, AM193-significant genes
  logFC Mybl2: -1.058
Gene Naa10, AM193-significant genes
  logFC Naa10: -0.8589
Gene Nampt, AM193-significant genes
  logFC Nampt: -0.7338
Gene Nasp, AM193-significant genes
  logFC Nasp: -0.9086
Gene Nbn, AM193-significant genes
  logFC Nbn: -0.7109
Gene Ndc80, AM193-significant genes
  logFC Ndc80: -0.7825
Gene Net1, AM193-significant genes
  logFC Net1: -0.7159
Gene Nhp2, AM193-significant genes
  logFC Nhp2: -0.7487
Gene Nhsl1, AM193-significant genes
  logFC Nhsl1: -0.7298
Gene Nmi, AM193-significant genes
  logFC Nmi: -0.8028
Gene Noc2l, AM193-significant genes
  logFC Noc2l: -0.884
Gene Nr4a1, AM193-significant genes
  logFC Nr4a1: -0.9791
Gene Nsun2, AM193-significant genes
  logFC Nsun2: -0.766
Gene P4ha2, AM193-significant genes
  logFC P4ha2: -0.8086
Gene Pbk, AM193-significant genes
  logFC Pbk: -0.8895
Gene Pclaf, AM193-significant genes
  logFC Pclaf: -0.7086
Gene Pfkl, AM193-significant genes
  logFC Pfkl: -1.068
Gene Pfkp, AM193-significant genes
  logFC Pfkp: -0.83
Gene Pgf, AM193-significant genes
  logFC Pgf: -1.056
Gene Pgm1, AM193-significant genes
  logFC Pgm1: -0.9062
Gene Pgp, AM193-significant genes
  logFC Pgp: -0.8532
Gene Pif1, AM193-significant genes
  logFC Pif1: -0.8212
Gene Pimreg, AM193-significant genes
  logFC Pimreg: -0.8591
Gene Plekha2, AM193-significant genes
  logFC Plekha2: -0.8787
Gene Plk1, AM193-significant genes
  logFC Plk1: -0.7788
Gene Plpp5, AM193-significant genes
  logFC Plpp5: -0.8001
Gene Pmf1, AM193-significant genes
  logFC Pmf1: -0.796
Gene Pnn, AM193-significant genes
  logFC Pnn: -0.8904
Gene Pold1, AM193-significant genes
  logFC Pold1: -0.8466
Gene Pold2, AM193-significant genes
  logFC Pold2: -0.855
Gene Prkcz, AM193-significant genes
  logFC Prkcz: -1.145
Gene Psmb10, AM193-significant genes
  logFC Psmb10: -0.8103
Gene Ptpn6, AM193-significant genes
  logFC Ptpn6: -0.8579
Gene Rcc1, AM193-significant genes
  logFC Rcc1: -0.8765
Gene Rcc1l, AM193-significant genes
  logFC Rcc1l: -0.7067
